In patent publication US11040981B2, “Pyrrolotriazine compounds and methods of inhibiting TAM kinases” (Syros Pharmaceuticals, Inc., priority 2017, dated 2021) one finds IC50 data, which are given here for 35 compounds.

Molecules are shown by their SMILES.

One test addresses T1, AXL (Homo sapiens, UniProt P30530).
T1 sequence (P30530 26-894): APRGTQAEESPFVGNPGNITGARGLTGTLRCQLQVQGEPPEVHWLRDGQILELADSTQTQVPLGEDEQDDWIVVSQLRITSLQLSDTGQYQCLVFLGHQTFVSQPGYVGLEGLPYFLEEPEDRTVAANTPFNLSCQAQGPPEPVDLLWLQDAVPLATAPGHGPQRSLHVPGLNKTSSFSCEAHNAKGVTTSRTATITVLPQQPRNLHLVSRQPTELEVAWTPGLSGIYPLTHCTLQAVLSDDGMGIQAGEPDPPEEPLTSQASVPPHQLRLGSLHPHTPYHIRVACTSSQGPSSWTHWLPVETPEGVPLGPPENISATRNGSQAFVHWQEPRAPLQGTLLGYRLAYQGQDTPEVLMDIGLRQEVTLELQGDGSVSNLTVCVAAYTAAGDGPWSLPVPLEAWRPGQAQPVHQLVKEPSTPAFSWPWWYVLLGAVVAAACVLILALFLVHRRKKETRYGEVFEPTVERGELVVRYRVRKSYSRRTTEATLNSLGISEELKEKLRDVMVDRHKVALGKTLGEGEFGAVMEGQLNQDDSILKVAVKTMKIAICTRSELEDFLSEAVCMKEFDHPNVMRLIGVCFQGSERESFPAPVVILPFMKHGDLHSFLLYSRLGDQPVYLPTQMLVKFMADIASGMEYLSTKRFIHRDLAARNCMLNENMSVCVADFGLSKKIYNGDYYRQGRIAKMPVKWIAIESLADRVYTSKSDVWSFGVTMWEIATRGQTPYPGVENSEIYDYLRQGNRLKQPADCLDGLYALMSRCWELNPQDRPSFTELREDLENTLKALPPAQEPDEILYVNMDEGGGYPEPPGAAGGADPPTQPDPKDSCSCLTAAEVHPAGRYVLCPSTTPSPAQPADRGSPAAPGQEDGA
Nature of the test: TR-FRET kinase activity assay, AXL. Type of test: biochemical. To be noted: ATP at Km, 60 minutes. The method in brief: (§1)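 Enzyme, fluorescent peptide substrate and compound were mixed, and the reaction was started with ATP at each kinase's Km, in 50 mM HEPES pH 7.5, 10 mM MgCl2, 1 mM EGTA, 0.01% Brij 35, 1 mM DTT at RT. After 60 minutes EDTA quench, Eu-labelled phospho-specific antibody was added for 30 minutes, and IC50 was derived from TR-FRET signal loss.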
In general terms: Time-resolved FRET reads energy transfer from a long-lived donor to a nearby acceptor.

The target in a further test is T2, FLT3 (Homo sapiens, UniProt P36888).
T2 sequence (P36888 27-993): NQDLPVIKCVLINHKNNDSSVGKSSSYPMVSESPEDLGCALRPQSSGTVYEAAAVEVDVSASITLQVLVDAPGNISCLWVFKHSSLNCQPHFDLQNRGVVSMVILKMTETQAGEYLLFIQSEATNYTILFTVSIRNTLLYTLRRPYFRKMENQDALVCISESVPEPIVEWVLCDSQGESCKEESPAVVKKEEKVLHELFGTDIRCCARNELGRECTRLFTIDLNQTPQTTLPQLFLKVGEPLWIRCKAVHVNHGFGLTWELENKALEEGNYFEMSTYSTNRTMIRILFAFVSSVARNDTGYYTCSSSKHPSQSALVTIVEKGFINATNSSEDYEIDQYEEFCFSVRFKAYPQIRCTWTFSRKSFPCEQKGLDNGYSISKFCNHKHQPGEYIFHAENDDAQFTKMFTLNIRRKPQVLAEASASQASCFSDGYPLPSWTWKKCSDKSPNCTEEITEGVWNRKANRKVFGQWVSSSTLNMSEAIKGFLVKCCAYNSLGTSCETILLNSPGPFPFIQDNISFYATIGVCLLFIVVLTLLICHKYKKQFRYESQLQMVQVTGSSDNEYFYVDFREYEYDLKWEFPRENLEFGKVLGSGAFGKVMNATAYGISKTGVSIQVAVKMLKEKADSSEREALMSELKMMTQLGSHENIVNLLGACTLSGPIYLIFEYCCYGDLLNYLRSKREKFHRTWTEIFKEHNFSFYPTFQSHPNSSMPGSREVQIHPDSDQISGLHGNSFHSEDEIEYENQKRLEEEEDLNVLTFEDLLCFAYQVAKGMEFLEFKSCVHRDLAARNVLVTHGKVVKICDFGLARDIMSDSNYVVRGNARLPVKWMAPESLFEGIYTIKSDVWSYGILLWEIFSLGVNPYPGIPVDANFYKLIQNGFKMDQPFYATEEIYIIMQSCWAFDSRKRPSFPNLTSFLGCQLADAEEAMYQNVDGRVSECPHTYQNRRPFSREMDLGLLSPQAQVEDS
Kind of test: TR-FRET kinase activity assay, FLT3. In kind it is biochemical. To be noted: ATP at Km, 60 minutes. Put shortly:
as §1

The IC50 is the concentration needed to halve the response being measured. As to `OC1CCC(c2cc(-c3ccnc(N4CCOCC4)c3)c3cnc(NC4CCOC4)nn23)CC1` (stereo not shown) [Compound 356], the IC50 on AXL and against FLT3 was at most 100 nM throughout.
As to `COC[C@H](C)Nc1ncc2c(-c3ccnc(N4CCS(=O)(=O)CC4)c3)cc([C@H]3CC[C@H](O)CC3)n2n1` [Compound 357], the IC50 against AXL was at most 100 nM; against FLT3, 100 to 1000 nM.
The like results for `COC[C@H](C)Nc1ncc2c(-c3ccnc(OC4COC4)c3)cc([C@H]3CC[C@H](O)CC3)n2n1` [Compound 358] were, in that order, at most 100 nM and 1000 to 10000 nM.
The like results for `OC1CCC(c2cc(-c3ccnc(N4CCOCC4)c3)c3cnc(NCCC4CC4)nn23)CC1` (stereo not shown) [Compound 359] were, in that order, at most 100 nM and at most 100 nM.
For `CNS(=O)(=O)c1ccc(-c2cc([C@H]3CC[C@H](O)CC3)n3nc(N[C@@H](C)CC(F)(F)F)ncc23)cn1` [Compound 360], in that order: at most 100 nM and at most 100 nM.
For the compound `CNOc1cc(-c2cc([C@H]3CC[C@H](O)CC3)n3nc(N[C@@H](C)COC)ncc23)ccn1` [Compound 361], the IC50 against AXL was at most 100 nM; against FLT3 it was 1000 to 10000 nM.
The like results for `O[C@H]1CC[C@H](c2cc(-c3ccnc(N4CCOCC4)c3)c3cnc(N[C@H]4CCOC4)nn32)CC1` [Compound 362] were, in that order, at most 100 nM and at most 100 nM.
Take `O[C@H]1CC[C@H](c2cc(-c3ccnc(N4CCOCC4)c3)c3cnc(NCCC(F)(F)F)nn32)CC1` [Compound 363]: the IC50 against AXL and on FLT3 was at most 100 nM throughout.
Turning to `COC[C@H](C)Nc1ncc2c(-c3cnn([C@@H]4CCC(C(=O)OC(C)(C)C)C4)c3)cc([C@H]3CC[C@H](O)CC3)n2n1` (stereo partly shown) [Compound 364], the IC50 on AXL and against FLT3 was at most 100 nM each time.
On to `COC[C@H](C)Nc1ncc2c(-c3cnn([C@H]4CCC(C(=O)OC(C)(C)C)C4)c3)cc([C@H]3CC[C@H](O)CC3)n2n1` (stereo partly shown) [Compound 365], for which the IC50 against AXL was at most 100 nM; at FLT3 it was 100 to 1000 nM.
The like results for `COCC(C)Nc1ncc2c(-c3cnn(C(C)(C)C(=O)N4CCOC(C)(C)C4)c3)cc(C3CCC(O)CC3)n2n1` (stereo not shown) [Compound 366] were, in that order, at most 100 nM and 1000 to 10000 nM.
The like results for `COC[C@H](C)Nc1ncc2c(-c3cnn(C(C)(C)C(=O)N4C[C@@H](C)O[C@H](C)C4)c3)cc([C@H]3CC[C@H](O)CC3)n2n1` [Compound 367] were, in that order, at most 100 nM and 1000 to 10000 nM.
For `COC[C@H](C)Nc1ncc2c(-c3cnn(C[C@@H]4CCC(=O)N4)c3)cc([C@H]3CC[C@H](O)CC3)n2n1` [Compound 368], in that order: at most 100 nM and 100 to 1000 nM.
In the case of `COC[C@H](C)Nc1ncc2c(-c3ccnc(OC4CCNCC4)c3)cc([C@H]3CC[C@H](O)CC3)n2n1` [Compound 369], the concentration for half-maximal inhibition (IC50) at AXL was at most 100 nM; against FLT3, 100 to 1000 nM.
The like results for `CC(=O)N1CCN(Cc2ccc(-c3cc(C4CCC(O)CC4)n4nc(NC(C)CC(F)(F)F)ncc34)cc2)CC1` (stereo not shown) [Compound 370] were, in that order, at most 100 nM and at most 100 nM.
The like results for `COCC(C)Nc1ncc2c(C3CCCN(C(C)=O)C3)cc(C3CCC(O)CC3)n2n1` (stereo not shown) [Compound 371] were, in that order, 1000 to 10000 nM and 1000 to 10000 nM.
With `COC[C@H](C)Nc1ncc2c([C@@H]3CCCN(C(C)=O)C3)cc([C@H]3CC[C@H](O)CC3)n2n1` [Compound 372], the IC50 against AXL and against FLT3 was 1000 to 10000 nM in each case.
Turning to `COCC(C)Nc1ncc2c(C3CCN(c4ccnc(C)n4)C3)cc(C3CCC(O)CC3)n2n1` (stereo not shown) [Compound 373], the values for the IC50 against AXL and against FLT3 were 100 to 1000 nM and 1000 to 10000 nM, respectively.
The like results for `COCC(C)Nc1ncc2c(C3CCN(c4ccnc(C)n4)C3)cc(C3CCC(O)CC3)n2n1` (stereo not shown) [Compound 374] were, in that order, at most 100 nM and 1000 to 10000 nM.
The like results for `COC[C@H](C)Nc1ncc2c([C@@H]3CCN(S(C)(=O)=O)C3)cc([C@H]3CC[C@H](O)CC3)n2n1` [Compound 375] were, in that order, 100 to 1000 nM and 1000 to 10000 nM.
The like results for `COC[C@H](C)Nc1ncc2c([C@H]3CCN(S(C)(=O)=O)C3)cc([C@H]3CC[C@H](O)CC3)n2n1` [Compound 376] were, in that order, 100 to 1000 nM and 1000 to 10000 nM.
With `COC[C@H](C)Nc1ncc2c([C@H]3CCCN(c4ccnc(C)n4)C3)cc([C@H]3CC[C@H](O)CC3)n2n1` [Compound 377], the IC50 against AXL is 100 to 1000 nM; against FLT3, 1000 to 10000 nM.
For `COC[C@H](C)Nc1ncc2c([C@@H]3CCCN(c4ccnc(C)n4)C3)cc([C@H]3CC[C@H](O)CC3)n2n1` [Compound 378], in that order: 1000 to 10000 nM and 1000 to 10000 nM.
The like results for `COCC(C)Nc1ncc2c(-c3cnn(CC4CCCO4)c3)cc(C3CCC(O)CC3)n2n1` (stereo not shown) [Compound 379] were, in that order, at most 100 nM and 100 to 1000 nM.
Turning to `COC[C@H](C)Nc1ncc2c(-c3cnn(CC4CCCO4)c3)cc([C@H]3CC[C@H](O)CC3)n2n1` (stereo partly shown) [Compound 380], the values for the half-maximal inhibitory concentration (IC50) at AXL and against FLT3 were at most 100 nM and 100 to 1000 nM, respectively.
For `COC[C@H](C)Nc1ncc2c(-c3ccnc(C)c3)cc([C@H]3CC[C@@](C)(O)CC3)n2n1` [Compound 381], in that order: at most 100 nM and 1000 to 10000 nM.
For `COC[C@H](C)Nc1ncc2c(-c3cnn(CCC#N)c3)cc([C@H]3CC[C@](C)(O)CC3)n2n1` [Compound 382], in that order: at most 100 nM and 100 to 1000 nM.
For `CNC(=O)c1cc(-c2cc([C@H]3CC[C@H](O)CC3)n3nc(N[C@@H](C)CC(F)(F)F)ncc23)ccn1` [Compound 384], in that order: at most 100 nM and at most 100 nM.
With `CNC(=O)c1cc(-c2cc([C@H]3CC[C@H](O)CC3)n3nc(N[C@@H](C)COC(F)F)ncc23)cc(C)n1` [Compound 385], the IC50 on AXL was in the range of 100 to 1000 nM; against FLT3, 1000 to 10000 nM.
In the case of `COC[C@H](C)Nc1ncc2c(-c3ccnc(O[C@H]4CCNC4)c3)cc([C@H]3CC[C@H](O)CC3)n2n1` [Compound 386], the IC50 is at most 100 nM on AXL and 100 to 1000 nM against FLT3.
For `C[C@@H](CN(C)C)Nc1ncc2c(-c3cnn(C4COC4)c3)cc([C@H]3CC[C@H](O)CC3)n2n1` [Compound 387], in that order: 1000 to 10000 nM and 1000 to 10000 nM.
The like results for `C[C@H](CN(C)C)Nc1ncc2c(-c3cnn(C4COC4)c3)cc([C@H]3CC[C@H](O)CC3)n2n1` [Compound 388] were, in that order, 1000 to 10000 nM and 1000 to 10000 nM.
For `COC[C@H](C)Nc1ncc2c(-c3ccnc(O[C@H]4CCCNC4)c3)cc([C@H]3CC[C@H](O)CC3)n2n1` [Compound 389], in that order: at most 100 nM and 100 to 1000 nM.
As for `COC[C@H](C)Nc1ncc2c(-c3ccnc(O[C@@H]4CCCNC4)c3)cc([C@H]3CC[C@H](O)CC3)n2n1` [Compound 390], the figures for the IC50 on AXL and against FLT3 were at most 100 nM and 100 to 1000 nM, respectively.
The like results for `COC[C@H](C)Nc1ncc2c(-c3ccnc(C)c3)cc([C@H]3CC[C@](C)(O)CC3)n2n1` [Compound 391] were, in that order, at most 100 nM and 100 to 1000 nM.
